Assay results reported in patent EP0262785A1, “N-[2-(4-carboxymethoxyphenyl)-1-methylethyl]-2-hydroxy-2-(3-chlorophenyl)ethane amine, the methyl ester, salt and stereoisomeric forms thereof” (BEECHAM GROUP PLC, priority 1986, dated 1988).

Columns and labels:
Female CFLP mice = experiment: Anti-hyperglycaemic activity (subcutaneous glucose load, blood glucose curve); type: in vivo; conditions: Dose 0.02 µmol/kg orally as aqueous solution, 6 mice fasted for 24 hours; glucose 1g/kg subcutaneously 30 minutes later; area over the 2 hour period compared with control mice given water
Protocol: Female CFLP mice, weighing approximately 25 g, were fasted for 24 hours prior to the study. The compound under study was administered orally as an aqueous solution to each of 6 mice. 30 minutes later a blood sample (10µl) was obtained from the tail for the analysis of blood glucose. Immediately after taking this blood sample, glucose (1g/kg body weight) was administered subcutaneously to each mouse. 6 mice were given water as a control. Blood samples were then obtained from each mouse at 30 minute intervals for 120 minutes. Compounds that produce a significant (P<0.05) reduction of blood glucose, compared with control mice given water, at any time interval, are considered active. The area under the blood glucose curve over the 2 hour period after the administration of the glucose was calculated for the compound and compared with the value for control animals.

Male Sprague-Dawley rats = experiment: Effect on Energy Expenditure of Rats; type: in vivo; conditions: Dose 0.2 µmol/kg p.o. in water, rats deprived of food, percentage of the rate of energy expenditure of the rats dosed with water
Protocol: Water was provided ad lib at all times. The compounds were administered orally in water to 3 or 4 rats. A further 4 rats were dosed orally with water. The rats were placed in boxes through which air was drawn and the oxygen content of the air leaving the boxes was measured. The energy expenditure of the rats was calculated for 3 hours and for 21 hours after dosing from the volume of air leaving the boxes and its oxygen content, following the principles described by J.B. de V. Weir, J. Physiol. (London) 109, 1-9 (1949). The results are expressed as a percentage of the rate of energy expenditure of the rats dosed with water.

Q: Which “% Reduction in area under Blood Glucose Curve” value (Female CFLP mice) does the source give for COC(=O)COc1ccc(C[C@@H](C)NC[C@H](O)c2cccc(Cl)c2)cc1 [Example 1, N-[2-(4-Carbomethoxymethoxyphenyl)-1-(R)-1-methylethyl-2-(R)-2-hydroxy-2-(3-chlorophenyl)ethananine, hemifumarate] here?
A: 51%

Q: And the “Mean Energy Expenditure (0-3h)” value (Male Sprague-Dawley rats; 3 hours after dosing)?
A: 134 percentage

Q: What about the “Mean Energy Expenditure (0-21h)” value (Male Sprague-Dawley rats; 21 hours after dosing) of the same molecule?
A: 111 percentage
